Read-outs that look alike come from different tables or passages of the source.
Key:
[1] = system: Pseudomonas aerug. ATCC10145; experiment: MIC by broth microdilution; format: cell-based, Pseudomonas aeruginosa; conditions: internal code L4; for MIC: Pseudomonas, ATCC10145, read-out: MIC of the compounds
[2] = system: Enterococc. faecalis ATCC 7080; experiment: MIC by broth microdilution; format: cell-based, Enterococcus faecalis; conditions: internal code L149; for MIC: Enterococcus faecalis, ATCC7080, read-out: MIC of the compounds
[3] = system: Staph. haemolyticus rifa-r^(2); experiment: MIC by broth microdilution; format: cell-based; conditions: for MIC: Staphylococcus haemolyticus, read-out: MIC of the compounds
Staphylococcus aureus = experiment: MIC by broth microdilution; format: cell-based; conditions: internal code L165; for MIC: Staphylococcus aureus, read-out: MIC of the compounds
Staph. aureus rifa-r^(2) = experiment: MIC by broth microdilution; format: cell-based; conditions: for MIC: Staphylococcus aureus, read-out: MIC of the compounds
Staph. aureus rifa-r^(1) = experiment: MIC by broth microdilution; format: cell-based; conditions: for MIC: Staphylococcus aureus, read-out: MIC of the compounds
Strept. pneumoniae = experiment: MIC by broth microdilution; format: cell-based; conditions: internal code L44; for MIC: Streptococcus pneumoniae, read-out: MIC of the compounds
Escherichia coli = experiment: MIC by broth microdilution; format: cell-based; conditions: internal code L47; for MIC: Escherichia coli, read-out: MIC of the compounds
Staph. aureus Smith = experiment: MIC by broth microdilution; format: cell-based; conditions: internal code L819; for MIC: Staphylococcus aureus, read-out: MIC of the compounds
[4] = system: Staph. epidermidis ATCC 12228; experiment: MIC by broth microdilution; format: cell-based; conditions: internal code L147; for MIC: Staphylococcus epidermidis, ATCC12228, read-out: MIC of the compounds
[5] = system: Bacteroides fragilis ATCC 25285; experiment: MIC by broth microdilution; format: cell-based; conditions: Bacteroides fragilis, ATCC25285; internal code L1011; anaerobic, 48 hours; read-out: MIC of the compounds
[6] = system: Propionibact. acnes ATCC 6919; experiment: MIC by broth microdilution; format: cell-based, Propionibacterium acnes; conditions: Cutibacterium acnes, ATCC6919; internal code L1014; anaerobic, 48 hours; read-out: MIC of the compounds
[7] = system: Proteus vulgaris ATCC 881; experiment: MIC by broth microdilution; format: cell-based; conditions: internal code L79; for MIC: Proteus vulgaris, ATCC881, read-out: MIC of the compounds
Neisseria gonorrhoeae = experiment: MIC by broth microdilution; format: cell-based; conditions: internal code L997, 5% carbon dioxide, 48 hours; for MIC: Neisseria gonorrhoeae, read-out: MIC of the compounds
[8] = system: Haemoph. influenzae ATCC 19418; experiment: MIC by broth microdilution; format: cell-based, Haemophilus influenzae; conditions: internal code L970, 5% carbon dioxide, 48 hours; for MIC: Haemophilus influenzae, ATCC19418, read-out: MIC of the compounds
Streptococcus pyogenes = experiment: MIC by broth microdilution; format: cell-based; conditions: internal code L49; for MIC: Streptococcus pyogenes, read-out: MIC of the compounds
[9] = system: Staphylococcus aureus Smith (Int. code L 819); experiment: Experimental septicemia in mice; format: in vivo; conditions: treated once immediately after infection, survival on the 7th day; for ED50: Staphylococcus aureus, 168 h
Procedure: Some compounds of the invention were also tested in experimental septicemia in mice infected with Staphylococcus aureus Smith (Int. code L 819). For this purpose, groups of five mice were infected intraperitoneally with about 1 x 10^6 CFU of S. aureus Smith suspended in 0.5 ml of Difco bacteriological mucin. Untreated animals died within 48 hours. The other animals were treated once immediately after infection. On the 7th day the value of ED50 (expressed in mg/kg) was calculated by the method of Spearman-[…]., Statistical method in biological assay, page 254, C. Griffin Ltd., London, 1952), on the basis of the percentage of animals surviving at each dose.

[10] = system: Moraxella catarr. ATCC 8178; experiment: MIC by broth microdilution; format: cell-based, Moraxella catharralis; conditions: ATCC8178, internal code L76, read-out: MIC of the compounds
Klebsiella pneumoniae = experiment: MIC by broth microdilution; format: cell-based; conditions: internal code L142, read-out: MIC of the compounds
[11] = system: Esch. coli K12 rifa-r^(1); experiment: MIC by broth microdilution; format: cell-based, Escherichia coli; conditions: Escherichia coli, read-out: MIC of the compounds
[12] = system: Esch. coli K12 hyperpermeable; experiment: MIC by broth microdilution; format: cell-based, Escherichia coli; conditions: Escherichia coli, read-out: MIC of the compounds
Clostridium perfringens = experiment: microbe, parasite or virus in culture; format: cell-based; conditions: read-out: MIC of the compounds
[13] = system: Bacteroides fragilis ATCC 23745; experiment: MIC by broth microdilution; format: cell-based; conditions: internal code L1010, anaerobic, 48 hours
[14] = intravenous, read-out: ED50 IV route
[15] = sc, subcutaneous, read-out: ED50 SC route

Molecule	MIC [1] [µg/mL]	MIC [2] [µg/mL]	MIC [3] [µg/mL]	MIC (Staphylococcus aureus) [µg/mL]	MIC (Staph. aureus rifa-r^(2)) [µg/mL]	MIC (Staph. aureus rifa-r^(1)) [µg/mL]	MIC (Strept. pneumoniae) [µg/mL]	MIC (Escherichia coli) [µg/mL]	MIC (Staph. aureus Smith) [µg/mL]	MIC [4] [µg/mL]	MIC [5] [µg/mL]	MIC [6] [µg/mL]	MIC [7] [µg/mL]	MIC (Neisseria gonorrhoeae) [µg/mL]	MIC [8] [µg/mL]	MIC (Streptococcus pyogenes) [µg/mL]	ED50 [9, 14] [mg/kg]	ED50 [9, 15] [mg/kg]	other results
CCn1cc(C(=O)OCC(=O)O[C@H]2[C@H](C)[C@H](O)[C@H](C)[C@@H](O)[C@@H](C)/C=C/C=C(/C)C(=O)Nc3c(C=NN4CCN(C)CC4)c(O)c4c5c(c(C)c(O)c4c3O)O[C@](C)(O/C=C/[C@H](OC)[C@H]2C)C5=O)c(=O)cc1N1CCN(C)CC1 [Compound C30, 36-{[1-Ethyl-1,4-dihydro-6-(4-methyl-1-piperazinyl)-4-oxo-3-pyridinyl]carbonyloxy]-3-{[(4-methyl-1-piperazinyl)imino]methyl}rifamycin SV]	32	0.25	4	0.016	1	0.5	0.008	16	0.016	0.016	0.06	0.03	16	0.13	1	0.016	0.72	1.6	
CO[C@H]1/C=C/O[C@@]2(C)Oc3c(C)c(O)c4c(c3C2=O)C(=O)C=C(NC(=O)/C(C)=C\C=C\[C@H](C)[C@H](O)[C@@H](C)[C@@H](O)[C@@H](C)[C@H](OC(=O)CBr)[C@@H]1C)C4=O [Compound C1, 36-Bromorifamycin S]	32	1	32	0.004	2	0.25	0.03	32		0.004	1	0.016	16	1	1	0.03			MIC [10]: 0.008 µg/mL; MIC (Klebsiella pneumoniae): 128 µg/mL; MIC [11]: > 128 µg/mL; MIC [12]: 0.25 µg/mL; MIC (Clostridium perfringens): 0.0003 µg/mL
CO[C@H]1/C=C/O[C@@]2(C)Oc3c(C)c(O)c4c(c3C2=O)C(=O)C=C(NC(=O)/C(C)=C\C=C\[C@H](C)[C@H](O)[C@@H](C)[C@@H](O)[C@@H](C)[C@H](OC(=O)COC(C)=O)[C@@H]1C)C4=O [Compound C13, 36-Acetyloxyrifamycin S]	32	0.13	32	0.002	4	0.25	0.008	16		0.001	0.5	0.03	8	0.25	0.5	0.008			MIC [10]: 0.004 µg/mL; MIC (Klebsiella pneumoniae): 64 µg/mL; MIC [11]: > 128 µg/mL; MIC [12]: ≤ 0.13 µg/mL; MIC (Clostridium perfringens): 0.0005 µg/mL
CCn1cc(C(=O)OCC(=O)O[C@H]2[C@H](C)[C@H](O)[C@H](C)[C@@H](O)[C@@H](C)/C=C/C=C(/C)C(=O)Nc3c(C=NN4CCN(C5CCCC5)CC4)c(O)c4c5c(c(C)c(O)c4c3O)O[C@](C)(O/C=C/[C@H](OC)[C@H]2C)C5=O)c(=O)c2cc(F)c(N3CCN(C)CC3)cc21 [Compound C26, 3-[[(4-Cyclopentyl-1-piperazinyl)-imino]methyl}-36-{[1-ethyl-6-fluoro-1,4-dihydro-7-(4-methyl-1-piperazinyl)-4-oxo-3-quinolinyl]carbonyloxy}-rifamycin SV]	32	4	0.5	0.06	2	0.13	0.03	2	0.13	0.06	1	0.13	2	0.13	1	0.03	0.95	1.6	
CCn1cc(C(=O)OCC(=O)O[C@H]2[C@H](C)[C@H](O)[C@H](C)[C@@H](O)[C@@H](C)/C=C/C=C(/C)C(=O)Nc3c(C=NN4CCN(C)CC4)c(O)c4c5c(c(C)c(O)c4c3O)O[C@](C)(O/C=C/[C@H](OC)[C@H]2C)C5=O)c(=O)c2cc(F)c(N3CCN(C)CC3)cc21 [Compound C25, 36-{[1-Ethyl-6-fluoro-1,4-dihydro-7-(4-methyl-1-piperazinyl)-4-oxo-3-quinolinyl]carbonyloxy}-3-{[(4-methyl-1-piperazinyl)imino]methyl}rifamycin SV]	128	2	1	0.06	1	0.13	0.016	64	0.06	0.13	2		64	0.5	1	0.03	2.9	4.7	
36-[(1-Ethyl-6-fluoro-1,4-dihydro-7-(4-methyl-1-piperazinyl)-4-oxo-3-quinolinyl)carbonyloxy]-2'-(diethylamino)rifamycin P [Compound C22]																			MIC of the compounds [1]: 32 µg/mL; MIC of the compounds [2]: 2 µg/mL; MIC of the compounds ([3]; internal code L602, rifampicin resistant strain, highly resistant): 0.5 µg/mL; MIC of the compounds (Staphylococcus aureus): 0.06 µg/mL; MIC of the compounds (Staph. aureus rifa-r^(2); internal code L1282, rifampicin resistant strain, highly resistant): 1 µg/mL; MIC of the compounds (Staph. aureus rifa-r^(1); internal code L721, rifampicin resistant strain, moderately resistant): 0.13 µg/mL; MIC of the compounds (Strept. pneumoniae): 0.06 µg/mL; MIC of the compounds (Escherichia coli): ≥128 µg/mL; MIC of the compounds (Staph. aureus Smith): 0.06 µg/mL; MIC of the compounds [4]: 0.06 µg/mL; MIC of the compounds [7]: 64 µg/mL; MIC of the compounds (Neisseria gonorrhoeae): 0.25 µg/mL; MIC of the compounds [8]: 0.5 µg/mL; MIC of the compounds (Streptococcus pyogenes): 0.06 µg/mL; MIC of the compounds [13]: 0.13 µg/mL; ED50 IV route ([9]; intravenous): 0.7 mg/kg; ED50 SC route ([9]; subcutaneous): 5.3 mg/kg
CCn1cc(C(=O)OCC(=O)O[C@H]2[C@H](C)[C@H](O)[C@H](C)[C@@H](O)[C@@H](C)/C=C/C=C(/C)C(=O)NC3=C(N4CCOCC4)C(=O)c4c(c(O)c(C)c5c4C(=O)[C@@](C)(O/C=C/[C@H](OC)[C@H]2C)O5)C3=O)c(=O)c2cc(F)c(N3CCN(C)CC3)cc21 [Compound C24, 36-{[1-Ethyl-6-fluoro-1,4-dihydro-7-(4-methyl-1-piperazinyl)-4-oxo-3-quinolinyl]carbonyloxy}-3-(4-morpholinyl) rifamycin S]	16	0.13	0.13	0.06	0.13	0.06	0.008	16	0.06	0.008		0.06	16	0.06	0.13	0.06	3.8	> 50	MIC ([13]; Bacteroides fragilis, ATCC23745, read-out: MIC of the compounds): 0.13 µg/mL

From patent publication EP0700399B1, “36-DERIVATIVES OF RIFAMYCINS AND THEIR USE AS ANTIMICROBIAL AGENTS” (GRUPPO LEPETIT S.P.A., priority 1993, dated 1994)
